The source of these data is patent publication US8436012B2, “Imidazopyridin-2-one derivatives” (Daiichi Sankyo Company, Limited, priority 2008, dated 2013).

The target in one assay is T1, human mTOR (Homo sapiens, UniProt P42345).
T1 construct: the portion corresponding to 1362-2549aa at the C terminus of human mTOR; made in house
The experiment in a line: mTOR Kinase Activity Inhibition Test. It is filed as biochemical. The settings on record: His-tagged mTOR (1362C), biotinylated peptide substrate, ATP, 3 hours at room temperature, fluorescence resonance energy transfer 665 nm/620 nm; read-out: IC50 value of mTOR enzyme inhibitory activity. As to the method:
The kinase activity of mTOR was measured in the presence or absence of a test compound. A substrate peptide is phosphorylated by mTOR kinase activity. A complex of streptavidin-XL665 and anti-phosphorylated S6K (Thr389) antibody/anti-mouse IgG-cryptate binds to this phosphorylated peptide. At this moment, fluorescence resonance energy transfer takes place from antibody/anti-mouse IgG-cryptate exposed to light excitation to XL665, which results in emission of fluorescence at 665 nm. The mTOR kinase activity is detected using this principle.
(1) Sample Preparation and Enzymatic Reaction
An HEK293 cell line that constitutively expresses a His tag fused human mTOR has been established. His tag was introduced into the N terminus of the portion corresponding to 1362-2549aa at the C terminus of human mTOR. Cell lysate was prepared from this HEK293 cell line constitutively expressing His-tagged mTOR (1362C), and His-tagged mTOR (1362C) was purified using the His tag affinity according to a conventional method.
Next, an mTOR enzyme solution was prepared, which contains the aforementioned His-tagged mTOR (1362C) enzyme, 8 μg/mL of biotinylated peptide (Biotin-Ahx-[…]-amide (Sigma)), as well as 50 mM HEPES (pH 7.5), 20 mM MnCl2, 1 mg/ml BSA, an appropriate amount of protease inhibitor cocktail (Complete EDTA free, Roche), 100 ng/ml Calyculin A, 4 μg/ml Cantharidin and 10 mM DTT as other components.
The test compound was dissolved in DMSO, and serial dilutions were prepared with 20 μM ATP solution (50 mM HEPES (pH 7.5), 20 μM ATP) to achieve concentrations necessary for the assay. 5 μL of this compound solution was applied to each well of a 384 well small volume white Greiner plate.
5 μL of mTOR enzyme solution was added to the aforementioned well containing the test compound. After mixing, the mixture was incubated at room temperature for 3 hours to carry out the enzymatic reaction.
The same operation was performed with a solution of DMSO in 20 μM ATP solution as a positive control and with a solution of DMSO in 50 mM HEPES (pH 7.5) as a negative control.
(2) Detection of Enzymatic Reaction
After the enzymatic reaction, 5 μl each of an europium solution (a solution of anti-mouse IgG-cryptate (SCETI Medical Labo K.K.) and anti-phosphorylated S6K (Thr389) antibody (Cell Signaling Technology Inc.) in 50 mM HEPES (pH 7.5), 100 mM EDTA and 1.5 mg/ml BSA) and an XL665 solution (a solution of streptavidin-XL665 (SCETI Medical Labo K.K.) in 50 mM HEPES (pH 7.5), 100 mM EDTA, 0.8 M KF and 1.5 mg/ml BSA) were added in this order and then mixed. The mixture was incubated at 4° C. overnight. On the following day, the mixture was returned to room temperature and irradiated with excitation light at 337 nm. Fluorescence at 620 nm and fluorescence at 665 nm were measured with RUBYstar (BMG).
The mTOR inhibitory activity (%) was calculated using the ratio calculated from the measured values as an index of enzyme activity. Here, the ratio was calculated from the following formula (I). Ratio=10000×665 nm fluorescence value/620 nm fluorescence value (1)
The mTOR enzyme inhibitory activity (%) was calculated from the following formula (2). mTOR enzyme inhibitory activity (%)=100×[(P−S)/(P−N)] (2)
P: Ratio in well of positive control
N: Ratio in well of negative control
S: Ratio in well containing test compound
Further, an optimal curve was calculated based upon each concentration of the test compound prepared in serial dilutions and the mTOR enzyme inhibitory activity (%) at that concentration. The concentration at which 50% inhibition occurred was calculated as the IC50 value of mTOR enzyme inhibitory activity.

The subject of the next assay is WM-266-4 cells. The experiment in a line: Cell Proliferation Inhibitory Test. In kind it is cell-based. The settings on record: Homo sapiens, 72 h, cultured three days with test compound, MTT, read-out: 50% cell proliferation inhibitory activity (GI50 value). As to the method: WM-266-4 cells (ATCC, USA) were seeded in a 96-well plate and cultured overnight. Then, serial dilutions of the sample containing the test compound were prepared, added to each well and cultured another three days. Thereafter, the cell amount in each well was measured by MTT (MOSMANN, T., Rapid colorimetric assay for cellular growth and survival: application to proliferation and cytotoxicity assays. J. Immunol. Methods, 65, 55-63 (1983)). The 50% cell proliferation inhibitory activity (GI50 value) was calculated from the following formula (3). 100×[(T−T0)/(C−T0)]=50 (3)
Here, T represents values from the test compound added wells, C represents the value from the well to which the test compound was not added for three days, and To represents an initial measured value at the time of addition of the test compound.

T1 sequence (P42345 1362-2549): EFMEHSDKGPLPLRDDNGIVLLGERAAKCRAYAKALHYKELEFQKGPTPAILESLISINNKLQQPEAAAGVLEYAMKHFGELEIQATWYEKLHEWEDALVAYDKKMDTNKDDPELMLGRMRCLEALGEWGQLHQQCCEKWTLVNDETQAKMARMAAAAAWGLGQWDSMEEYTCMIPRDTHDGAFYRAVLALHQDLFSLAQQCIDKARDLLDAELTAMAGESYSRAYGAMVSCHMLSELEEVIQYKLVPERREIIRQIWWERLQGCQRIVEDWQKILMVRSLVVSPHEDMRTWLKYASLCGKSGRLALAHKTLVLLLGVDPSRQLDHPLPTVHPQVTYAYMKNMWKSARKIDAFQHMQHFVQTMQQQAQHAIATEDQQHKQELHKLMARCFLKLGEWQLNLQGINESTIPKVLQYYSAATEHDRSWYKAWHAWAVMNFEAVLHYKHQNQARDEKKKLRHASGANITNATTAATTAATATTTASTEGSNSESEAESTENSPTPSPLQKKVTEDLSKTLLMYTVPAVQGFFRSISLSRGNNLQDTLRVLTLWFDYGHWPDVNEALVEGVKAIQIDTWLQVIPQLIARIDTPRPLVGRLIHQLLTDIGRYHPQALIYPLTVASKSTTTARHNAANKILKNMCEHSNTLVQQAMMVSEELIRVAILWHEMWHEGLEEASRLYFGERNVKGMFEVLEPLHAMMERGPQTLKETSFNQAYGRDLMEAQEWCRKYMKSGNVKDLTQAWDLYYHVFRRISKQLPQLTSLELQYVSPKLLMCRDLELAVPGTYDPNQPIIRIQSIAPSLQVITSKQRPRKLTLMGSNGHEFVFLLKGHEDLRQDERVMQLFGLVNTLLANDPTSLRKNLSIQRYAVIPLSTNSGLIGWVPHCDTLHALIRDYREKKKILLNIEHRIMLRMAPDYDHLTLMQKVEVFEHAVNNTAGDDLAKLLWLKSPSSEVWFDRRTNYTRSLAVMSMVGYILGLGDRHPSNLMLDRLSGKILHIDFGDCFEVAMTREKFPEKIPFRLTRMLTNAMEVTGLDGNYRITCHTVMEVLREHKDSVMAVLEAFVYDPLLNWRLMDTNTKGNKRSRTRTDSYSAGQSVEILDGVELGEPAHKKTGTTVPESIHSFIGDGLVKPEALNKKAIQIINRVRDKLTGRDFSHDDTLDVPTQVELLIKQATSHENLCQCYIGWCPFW

A word on the IC50: it is the midpoint of a concentration-inhibition curve. As for `CNC(=O)c1c[nH]c2ncc(-c3cnc4[nH]c(=O)n(CC5CCOCC5)c4c3)cc12` [Example 94, N-Methyl-5-[2-oxo-1-(tetrahydro-2H-pyran-4-ylmethyl)-2,3-dihydro-1H-imidazo[4,5-b]pyridin-6-yl]-1H-pyrrolo[2,3-b]pyridine-3-carboxamide], the IC50 on human mTOR is 0.1 to 5 µM. For the same compound, the GI50 in the assay with WM-266-4 cells lay within 3 to 25 µM.

Regarding `O=c1[nH]c2ncc(-c3cnc4c(c3)CCN4)cc2n1C[C@H]1COCCO1` [Example 121, 6-(2,3-Dihydro-1H-pyrrolo[2,3-b]pyridin-5-yl)-1-[(2S)-1,4-dioxan-2-ylmethyl]-1,3-dihydro-2H-imidazo[4,5-b]pyridin-2-one], the IC50 at human mTOR was below 0.05 µM. Moreover, in the assay on WM-266-4 cells, the GI50 was below 3 µM.

Take `O=c1[nH]c2ncc(-c3cnc4[nH]cc(Cl)c4c3)cc2n1CC1CCOCC1` [Example 35, 6-(3-Chloro-1H-pyrrolo[2,3-b]pyridin-5-yl)-1-(tetrahydro-2H-pyran-4-ylmethyl)-1,3-dihydro-2H-imidazo[4,5-b]pyridin-2-one]: the IC50 at human mTOR is below 0.05 µM. In the assay with WM-266-4 cells, the GI50 was below 3 µM.

As for `O=c1[nH]c2ncc(-c3cnc4[nH]cc(C(F)(F)F)c4c3)cc2n1CC1CCOCC1` [Example 84, 1-(Tetrahydro-2H-pyran-4-ylmethyl)-6-[3-(trifluoromethyl)-1H-pyrrolo[2,3-b]pyridin-5-yl]-1,3-dihydro-2H-imidazo[4,5-b]pyridin-2-one], the IC50 at human mTOR was below 0.05 µM. Moreover, the GI50 in the assay on WM-266-4 cells lay within 3 to 25 µM.

As to `O=c1[nH]c2ncc(-c3cc4cc[nH]c4nc3Cl)cc2n1CC1CCOCC1` [Example 78, 6-(6-Chloro-1H-pyrrolo[2,3-b]pyridin-5-yl)-1-(tetrahydro-2H-pyran-4-ylmethyl)-1,3-dihydro-2H-imidazo[4,5-b]pyridin-2-one], on human mTOR, the IC50 was below 0.05 µM. Also, in the assay on WM-266-4 cells, the GI50 is below 3 µM.

For `Cc1[nH]c2ncc(-c3cnc4[nH]c(=O)n(CC5CCOCC5)c4c3)cc2c1C` [Example 87, 6-(2,3-Dimethyl-1H-pyrrolo[2,3-b]pyridin-5-yl)-1-(tetrahydro-2H-pyran-4-ylmethyl)-1,3-dihydro-2H-imidazo[4,5-b]pyridin-2-one], at human mTOR, the IC50 was 0.1 to 5 µM. Besides, the GI50 in the assay with WM-266-4 cells lay in the range of 3 to 25 µM.

In the case of `O=c1[nH]c2ncc(-c3cnc4[nH]ccc4c3Cl)cc2n1CC1CCOCC1` [Example 34, 6-(4-Chloro-1H-pyrrolo[2,3-b]pyridin-5-yl)-1-(tetrahydro-2H-pyran-4-ylmethyl)-1,3-dihydro-2H-imidazo[4,5-b]pyridin-2-one], the IC50 at human mTOR was below 0.05 µM. Further, the GI50 in the assay on WM-266-4 cells was below 3 µM.

For the compound `COC1(Cn2c(=O)[nH]c3ncc(-c4cnc5[nH]ccc5c4)cc32)CCOCC1` [Example 68, 1-[(4-Methoxytetrahydro-2H-pyran-4-yl)methyl]-6-(1H-pyrrolo[2,3-b]pyridin-5-yl)-1,3-dihydro-2H-imidazo[4,5-b]pyridin-2-one], the IC50 on human mTOR is below 0.05 µM. Besides, the GI50 in the assay with WM-266-4 cells was below 3 µM.

Turning to `CC(C1CCOCC1)n1c(=O)[nH]c2ncc(-c3cnc4[nH]ccc4c3)cc21` (centres unmarked) [Example 24, 6-(1H-Pyrrolo[2,3-b]pyridin-5-yl)-1-[1-(tetrahydro-2H-pyran-4-yl)ethyl]-1,3-dihydro-2H-imidazo[4,5-b]pyridin-2-one], on human mTOR, the IC50 was below 0.05 µM. Moreover, in the assay on WM-266-4 cells, the GI50 is below 3 µM.

Regarding `O=c1[nH]c2ncc(-c3ccc4[nH]ccc4c3)cc2n1CC1CCCCC1` [Example 6, 1-(Cyclohexylmethyl)-6-(1H-indol-5-yl)-1,3-dihydro-2H-imidazo[4,5-b]pyridin-2-one], the IC50 on human mTOR is below 0.05 µM. Also, the GI50 with WM-266-4 cells was below 3 µM.

As to `CN(C)c1c(-c2cnc3[nH]c(=O)n(C[C@H]4COCCO4)c3c2)cnc2[nH]ccc12` [Example 131, 6-[4-(Dimethylamino)-1H-pyrrolo[2,3-b]pyridin-5-yl]-1-[(2S)-1,4-dioxan-2-ylmethyl]-1,3-dihydro-2H-imidazo[4,5-b]pyridin-2-one], the IC50 at human mTOR was 0.1 to 5 µM. Also, in the assay on WM-266-4 cells, the GI50 was 3 to 25 µM.

With `Cc1c(-c2cnc3[nH]c(=O)n(C[C@H]4COCCO4)c3c2)cc(F)c2[nH]ccc12` [Example 128, 1-[(2S)-1,4-Dioxan-2-ylmethyl]-6-(7-fluoro-4-methyl-1H-indol-5-yl)-1,3-dihydro-2H-imidazo[4,5-b]pyridin-2-one], the 50% inhibitory concentration (IC50) at human mTOR was below 0.05 µM. For the same compound, the GI50 in the assay with WM-266-4 cells was below 3 µM.

`CCc1c(-c2cnc3[nH]c(=O)n(C[C@H]4COCCO4)c3c2)cnc2[nH]ccc12` [Example 123, 1-[(2S)-1,4-Dioxan-2-ylmethyl]-6-(4-ethyl-1H-pyrrolo[2,3-b]pyridin-5-yl)-1,3-dihydro-2H-imidazo[4,5-b]pyridin-2-one]: on human mTOR, the IC50 is below 0.05 µM. Moreover, the GI50 in the assay with WM-266-4 cells is below 3 µM.

Regarding `CO[C@H]1CCC[C@@H](Cn2c(=O)[nH]c3ncc(-c4cnc5[nH]ccc5c4)cc32)C1` (racemic) [Example 105, 1-{[cis-3-Methoxycyclohexyl]methyl}-6-(1H-pyrrolo[2,3-b]pyridin-5-yl)-1,3-dihydro-2H-imidazo[4,5-b]pyridin-2-one], the IC50 on human mTOR is below 0.05 µM. In the assay on WM-266-4 cells, the GI50 is below 3 µM.

Regarding `Cc1nc2[nH]c(=O)n(C[C@H]3COCCO3)c2cc1-c1cnc2[nH]cc(Cl)c2c1` [Example 46, 6-(3-Chloro-1H-pyrrolo[2,3-b]pyridin-5-yl)-1-[(2S)-1,4-dioxan-2-ylmethyl]-5-methyl-1,3-dihydro-imidazo[4,5-b]pyridin-2-one], the half-inhibitory concentration (IC50) on human mTOR was below 0.05 µM. Also, the GI50 with WM-266-4 cells was below 3 µM.

`N#Cc1c[nH]c2ncc(-c3cnc4[nH]c(=O)n(CC5CCOCC5)c4c3)cc12` [Example 95, 5-[2-Oxo-1-(tetrahydro-2H-pyran-4-ylmethyl)-2,3-dihydro-1H-imidazo[4,5-b]pyridin-6-yl]-1H-pyrrolo[2,3-b]pyridine-3-carbonitrile]: the concentration for half-maximal inhibition (IC50) at human mTOR is below 0.05 µM. The GI50 in the assay with WM-266-4 cells lay in the range of 3 to 25 µM.

With `O=C(O)c1c[nH]c2ncc(-c3cnc4[nH]c(=O)n(CC5CCOCC5)c4c3)cc12` [Example 93, 5-[2-oxo-1-(tetrahydro-2H-pyran-4-ylmethyl)-2,3-dihydro-1H-imidazo[4,5-b]pyridin-6-yl]-1H-pyrrolo[2,3-b]pyridine-3-carboxylic acid], on human mTOR, the 50% inhibitory concentration (IC50) is below 0.05 µM. Further, the GI50 in the assay with WM-266-4 cells is 3 to 25 µM.

For the compound `O=c1[nH]c2ncc(-c3cnc4[nH]ccc4c3)cc2n1CC1=CCCOC1` [Example 31, 1-(5,6-Dihydro-2H-pyran-3-ylmethyl)-6-(1H-pyrrolo[2,3-b]pyridin-5-yl)-1,3-dihydro-2H-imidazo[4,5-b]pyridin-2-one], on human mTOR, the IC50 was below 0.05 µM. Also, the GI50 in the assay with WM-266-4 cells is below 3 µM.

Consider `O=c1[nH]c2ncc(-c3cnc4[nH]ccc4c3)cc2n1CC1CC1` [Example 21, 1-(Cyclopropylmethyl)-6-(1H-pyrrolo[2,3-b]pyridin-5-yl)-1,3-dihydro-2H-imidazo[4,5-b]pyridin-2-one], for which the half-maximal inhibitory concentration (IC50) at human mTOR is below 0.05 µM. The GI50 with WM-266-4 cells is below 3 µM.
